This assay deals with human patients with Type 3 SMA. The experiment in a line: Four-week spinal cord stimulation (SCS) trial in SMA patients with or without concurrent SMA therapy (Nusinersen), with long-term follow-up. It is filed as in vivo. The text has this:
This example describes a particular method that can be used to treat SMA in a patient by applying a therapeutically effective amount of an electrical stimulus to the dorsolateral aspect of the spinal cord containing sensory neurons innervating a body region of the patient with motor impairment due to SMA. Although particular methods and protocols are provided, one skilled in the art will appreciate that variations can be made without substantially affecting the treatment. Three patients with SMA were identified and participated in this spinal cord stimulation trial. […]
Three human patients with Type 3 SMA that show quantifiable motor deficits of the legs are selected for treatment. […]
This example aims to measure immediate, end-of-study, and long-term effects of SCS on SMA including various clinical outcomes. […] As used herein, “immediate” refers to effects measured during the four-week study and relates to the usage of SCS. […] As used herein, “end-of-study” refers to effects measured within about 1 week before or after the end of the four-week study, around the time that the SCS electrodes are removed. […] In particular, as used herein, “long-term” refers to effects measured 50+ days after the electrodes are removed and relates to changes in motor ability over time without the continuous application of SCS. […]

On to Nusinersen, for which, where the note is “SMA02 and SMA03 (Nusinersen plus SCS) vs SMA01 (SCS only), during the four-week experiment”, the “results throughout the course of the four-week experiment, compared with the patient not treated with an SMA therapy” value is “did not exhibit substantially better results”. For the same substance, the “long-term course of the beneficial effects of SCS” value (SMA02 and SMA03 on SMA therapy during SCS, long-term follow-up (50+ days after explant), SMA01 without therapy showed long-term degradation) is given as “long-term stability in the beneficial effects of SCS”.

These data come from patent US20260043028A1, “TREATMENT OF SPINAL MUSCULAR ATROPHY” (University of Pittsburgh - Of the Commonwealth System of …, priority 2023, published 2026).
